In brackets after ≈: the same amount, converted by molar mass.
Columns and labels:
[1] = system: antisera generated to Immunogen I (hapten A-BTG); assay: competitive microtiter plate assay (ELISA) for salvinorin A and salvinorin B; assay type: binding, sheep
[2] = in vivo; cited from earlier work
[3] = Conjugate I, calibrator 0.16 ng/ml
[4] = Conjugate I, calibrator 0.31 ng/ml
[5] = Conjugate I, calibrator 0.63 ng/ml
[6] = Conjugate I, calibrator 1.25 ng/ml
[7] = Conjugate I, calibrator 2.50 ng/ml
[8] = Conjugate I, calibrator 5.00 ng/ml
[9] = Conjugate I, calibrator 10.00 ng/ml
[10] = Conjugate II, calibrator 0.16 ng/ml
[11] = Conjugate II, calibrator 0.31 ng/ml
[12] = Conjugate II, calibrator 0.63 ng/ml
[13] = Conjugate II, calibrator 1.25 ng/ml
[14] = Conjugate II, calibrator 2.50 ng/ml
[15] = Conjugate II, calibrator 5.00 ng/ml
[16] = Conjugate II, calibrator 10.00 ng/ml

Structure (SMILES)	% CR (percentage cross-reactivity based on 100% specificity to salvinorin A) ([1]; Conjugate I)	IC50 (standard concentration which produces 50% B/Bo) ([1]; Conjugate I)	% B/B0 [1, 3]	% B/B0 [1, 4]	% B/B0 [1, 5]	% B/B0 [1, 6]	% B/B0 [1, 7]	% B/B0 [1, 8]	% B/B0 [1, 9]	% CR (percentage cross-reactivity based on 100% specificity to salvinorin A) ([1]; Conjugate II)	IC50 (standard concentration which produces 50% B/Bo) ([1]; Conjugate II)	% B/B0 [1, 10]	% B/B0 [1, 11]	% B/B0 [1, 12]	% B/B0 [1, 13]	% B/B0 [1, 14]	% B/B0 [1, 15]	% B/B0 [1, 16]	action of duration [2]
COC(=O)[C@@H]1C[C@H](OC(C)=O)C(=O)[C@H]2[C@@]1(C)CC[C@H]1C(=O)O[C@H](c3ccoc3)C[C@]21C [Salvinorin A]	100%	0.277 ng/mL (≈ 0.641 nM)	62%	48%	36%	26%	18%	13%	9%	100%	0.331 ng/mL (≈ 0.765 nM)	64%	51%	39%	30%	20%	14%	9%	10 to 15 min
COC(=O)C1CC(O)C(=O)C2C1(C)CCC1C(=O)OC(c3ccoc3)CC12C (stereo not shown) [Salvinorin B]	9.52%	2.909 ng/mL (≈ 7.45 nM)	84%	74%	70%	63%	50%	43%	33%	12.00%	2.758 ng/mL (≈ 7.06 nM)	85%	78%	71%	61%	51%	43%	33%	–
